Reference: patent US9958439B2, “Carbohydrate detection” (RICHTER LIFE SCIENCE DEVELOPMENT AB, priority 2012, dated 2018)
Read-outs that look alike come from different tables or passages of the source.

Experiments:
[1] = for RFU change (Correlation analysis): probe-specific excitation λ, emission 545 nm; for carbohydrate can be detected and/or differentiated by the LCO: conclusion from change in signal magnitude and/or shift in λmax
Experimental: (§1) The excitation spectrum of the probe was analyzed for wavelengths 300-500 nm with emission read at 545 nm.
(§2) 3 μM of each probe was applied to serial two fold dilutions of the insoluble carbohydrate. Respective probes were excited at wavelengths unique to each probe (specified in figure), and emission was read at 545 nm.
(§3) Serial dilutions of carbohydrate suspensions were prepared in dH2O. Concentrations ranging from 10 to 0.039 mg/ml was used for β-1,3-glucan, cellulose and chitin, whereas 5 to 0.019 mg/ml was used for sodium alginate, glucose, amylose, glycogen, cellulobiose, heparin, chondroitin sulfate A. 3 μM of each LCO probe was added to 1 ml aliquots of each concentration of carbohydrate, after which 100 μl was dispensed in triplicates into 96 well plates. Excitation spectra were collected by exciting the sample from 300 to 500 nm and detecting emission at 545 nm. Detection of carbohydrate is concluded when there is a reproducible change in λmax and/or RFU intensity with reference to the negative control. Data from three concentrations, as well as the negative control are shown for each carbohydrate as specified in respective figure.
(§4) The excitation wavelength (emission detected at 545 nm) selected for each LCO is either (1) the λmax, or (2) the excitation wavelength which suffers the lowest background. A linear regression analysis is performed to determine the relationship between the carbohydrate concentration and RFU.

[2] = Experimental: 3 μM of each probe was applied to serial two fold dilutions of the insoluble carbohydrate of which the concentration shown here are 5 mg/ml (_.), 2.5 mg/ml (. . . ), 1.25 mg/ml (__) and 0 mg/ml (_). The excitation spectrum of the probe was analyzed for wavelengths 300-500 nm with emission read at 545 nm.
as §2, §3, §4

[3] = remark: listed apart in the source
Experimental: (§5) 3 μM of each probe was applied to serial two fold dilutions of the carbohydrate of which the concentration shown here are 5 mg/ml (_.), 2.5 mg/ml (. . . ) 1.25 mg/ml (__) and 0 mg/ml (_). The excitation spectrum of the probe was analyzed for wavelengths 300-500 nm with emission read at 545 nm.
3 μM of each probe was applied to serial two fold dilutions of the carbohydrate. Respective probes were excited at wavelengths unique to each probe (specified in figure), and emission was read at 545 nm. […] The mean increase in signal (_) with [Glucose] and the fitted regression line (__) is shown.
as §3, §4

[4] = for RFU change (Correlation analysis): probe-specific excitation λ, emission 545 nm; for carbohydrate can be detected and/or differentiated by the LCO: conclusion from change in signal magnitude and/or shift in λmax; remark: listed apart in the source
Experimental: as §5
(§6) 3 μM of each probe was applied to serial two fold dilutions of the carbohydrate. Respective probes were excited at wavelengths unique to each probe (specified in figure), and emission was read at 545 nm.
as §3, §4

[5] = for RFU change (Correlation analysis): probe-specific excitation λ, emission 545 nm; for Gradient Parameters (gradient of regression line) / Linear relationship / Quality of Gradient: linear regression
Experimental: 3 μM of each probe was applied to serial two fold dilutions of the carbohydrate of which the concentration shown here are 5 mg/ml (_.), 2.5 mg/ml (. . . ), 1.25 mg/ml (__) and 0 mg/ml (_). The excitation spectrum of the probe was analyzed for wavelengths 300-500 nm with emission read at 545 nm.
as §6, §3, §4

[6] = remark: listed apart in the source
Experimental: as §1, §6, §3, §4

[7] = Chitin 10-[…], 3 μM probe, spectral analysis, Excitation 300-500, Emission 545
[8] = cellulose concentration vs RFU, linear regression
[9] = chitin concentration vs RFU, linear regression
[10] = β-1,3-glucan concentration vs RFU, linear regression
[11] = sodium alginate concentration vs RFU, linear regression
[12] = glucose concentration vs RFU, linear regression
[13] = Cellulobiose 5-0.019 mg/ml, 3 μM probe, spectral analysis, Excitation 300-500, Emission 545
[14] = amylose concentration vs RFU, linear regression
[15] = cellulobiose concentration vs RFU, linear regression
[16] = Glycogen 5-0.019 mg/ml, 3 μM probe, spectral analysis, Excitation 300-500, Emission 545
[17] = Chondroitin Sulfate A 5-0.019 mg/ml, 3 μM probe, spectral analysis, Excitation 300-500, Emission 545
[18] = Chondroitin Sulfate A concentration vs RFU, linear regression

For `O=C([O-])C[C@H](NC(=O)Cc1cc(-c2cccs2)sc1-c1ccc(-c2sc(-c3cccs3)cc2CC(=O)N[C@@H](CC(=O)[O-])C(=O)[O-])s1)C(=O)[O-].[Na+].[Na+].[Na+].[Na+]` [pHTA-Asp, penta Hydrogen Thiophene Acetic acid Aspartic acid], the “RFU change (Correlation analysis)” value ([1]; Cellulose 10-[…], 3 μM probe) was “Unclear”, the “RFU change (Signal deviation with increasing [Carbohydrate])” value ([1]; Cellulose 10-[…], 3 μM probe, spectral analysis, Excitation 300-500, Emission 545) was “Unclear” and the “RFU change (Correlation analysis)” value ([1]; Chitin 10-[…], 3 μM probe) was “Increases”. The “RFU change (Signal deviation with increasing [Carbohydrate])” value [1, 7] was “Increases”, the λmax change [1, 7] was “Redshift” and the “carbohydrate can be detected and/or differentiated by the LCO” value ([1]; Chitin) was “can be detected and/or differentiated”. The “Gradient Parameters (gradient of regression line)” value (“Gradient Parameters” below) [1, 8] was 12.3 ± 64.4, the “Quality of Gradient” value [1, 8] was “Horizontal” and the “Gradient Parameters” value [1, 9] was 3138 ± 491.2. For the same compound, the Linear relationship [1, 9] was “Significant”, the “Quality of Gradient” value [1, 9] was “Positive” and the Sensitivity ([1]; to cellulose) was “No”. The Sensitivity ([1]; to chitin) was “Yes”, the Sensitivity ([1]; to β-1,3-glucan) was “Yes” and the “carbohydrate can be detected and/or differentiated by the LCO” value ([1]; β-1,3-Glucan) was “can be detected and/or differentiated”. The “RFU change (Correlation analysis)” value ([1]; β-1,3-glucan 10-[…], 3 μM probe) was “Decrease”, the “RFU change (Signal deviation with increasing [Carbohydrate])” value ([1]; β-1,3-glucan 10-[…], 3 μM probe, spectral analysis, Excitation 300-500, Emission 545) was “Decrease” and the “Gradient Parameters” value [1, 10] was −792.9 ± 97.3. For the same compound, the “Quality of Gradient” value [1, 10] was “Negative”, the “RFU change (Correlation analysis)” value ([2]; Sodium alginate 5-0.019 mg/ml, 3 μM probe, probe-specific excitation λ, emission 545 nm) was “Unclear” and the “RFU change (Signal deviation with increasing [Carbohydrate])” value ([2]; Sodium alginate 5-0.019 mg/ml, 3 μM probe, spectral analysis, Excitation 300-500, Emission 545) was “Unclear”. For the same compound, the “Gradient Parameters” value [2, 11] was 41.4 ± 59.6, the “Quality of Gradient” value [2, 11] was “Horizontal” and the Sensitivity ([2]; to sodium alginate) was “No”. For the same compound, the “RFU change (Correlation analysis)” value ([3]; Glucose 5-0.019 mg/ml, 3 μM probe, probe-specific excitation λ, emission 545 nm) was “Increases”, the “RFU change (Signal deviation with increasing [Carbohydrate])” value ([3]; Glucose 5-0.019 mg/ml, 3 μM probe, spectral analysis, Excitation 300-500, Emission 545) was “Increases” and the “carbohydrate can be detected and/or differentiated by the LCO” value ([3]; Glucose, conclusion from change in signal magnitude and/or shift in λmax) was “can be detected and/or differentiated”. For the same compound, the “Gradient Parameters” value [3, 12] was 625.1 ± 130.2, the Linear relationship [3, 12] was “Significant” and the “Quality of Gradient” value [3, 12] was “Positive”. For the same compound, the Sensitivity ([3]; to glucose) was “Yes”, the “RFU change (Correlation analysis)” value ([4]; Amylose 5-0.019 mg/ml, 3 μM probe) was “Increases” and the “RFU change (Signal deviation with increasing [Carbohydrate])” value ([4]; Amylose 5-0.019 mg/ml, 3 μM probe, spectral analysis, Excitation 300-500, Emission 545) was “Increases”. The “carbohydrate can be detected and/or differentiated by the LCO” value ([4]; Amylose) was “can be detected and/or differentiated”, the “RFU change (Correlation analysis)” value ([4]; Cellulobiose 5-0.019 mg/ml, 3 μM probe) was “Increases” and the “RFU change (Signal deviation with increasing [Carbohydrate])” value [4, 13] was “Increases”. The λmax change [4, 13] was “No change”, the “carbohydrate can be detected and/or differentiated by the LCO” value ([4]; Cellulobiose) was “can be detected and/or differentiated” and the “Gradient Parameters” value [4, 14] was −7.6 ± 208.9. The “Quality of Gradient” value [4, 14] was “Horizontal”, the Linear relationship [4, 15] was “Significant” and the “Quality of Gradient” value [4, 15] was “Positive”. The Sensitivity ([4]; to amylose) was “Yes”, the Sensitivity ([4]; to cellulobiose) was “Yes” and the “RFU change (Correlation analysis)” value ([5]; Glycogen 5-0.019 mg/ml, 3 μM probe) was “Decreases”. For the same compound, the “RFU change (Signal deviation with increasing [Carbohydrate])” value [5, 16] was “Decreases”, the λmax change [5, 16] was “Redshift” and the “carbohydrate can be detected and/or differentiated by the LCO” value ([5]; Glycogen, conclusion from change in signal magnitude and/or shift in λmax) was “can be detected and/or differentiated”. For the same compound, the “RFU change (Correlation analysis)” value ([5]; Heparin 5-0.019 mg/ml, 3 μM probe) was “Unclear”, the “RFU change (Signal deviation with increasing [Carbohydrate])” value ([5]; Heparin 5-0.019 mg/ml, 3 μM probe, spectral analysis, Excitation 300-500, Emission 545) was “Unclear” and the “Gradient Parameters” value ([5]; glycogen concentration vs RFU) was −665.8 ± 88.9. The Linear relationship ([5]; glycogen concentration vs RFU) was “Significant”, the “Quality of Gradient” value ([5]; glycogen concentration vs RFU) was “Negative” and the “Gradient Parameters” value ([5]; heparin concentration vs RFU) was −3.2 ± 49.3. For the same compound, the Linear relationship ([5]; heparin concentration vs RFU) was “Not Significant”, the “Quality of Gradient” value ([5]; heparin concentration vs RFU) was “Horizontal” and the Sensitivity ([5]; to glycogen) was “Yes”. For the same compound, the Sensitivity ([5]; to heparin) was “No”, the “RFU change (Correlation analysis)” value ([6]; Chondroitin Sulfate A 5-0.019 mg/ml, 3 μM probe, probe-specific excitation λ, emission 545 nm) was “Unclear” and the “RFU change (Signal deviation with increasing [Carbohydrate])” value [6, 17] was “Unclear”. The λmax change [6, 17] was “No change”, the “Gradient Parameters” value [6, 18] was −67.88 ± 90.0 and the “Quality of Gradient” value [6, 18] was “Horizontal”. For the same compound, the Sensitivity ([6]; to Chondroitin Sulfate A) was “No”.
